The results in this text go back to patent US20120283280A1, “IMIDAZOTETRAZINONE-BASED COMBI-MOLECULES” (priority 2011, published 2012).

By IC50 is commonly meant the concentration at which inhibition is half-maximal.

The target of one data set is T1, EGFR tyrosine kinase (Homo sapiens, UniProt P00533).
T1 construct: purchased
The experiment in a line: EGFR kinase enzyme assay (ELISA, PGT phosphorylation). It counts as biochemical. The following applies: ELISA, 8 minute exposure, PGT substrate; read-out: IC50, EGFR TK inhibition. The method, then:
EGFR Kinase Enzyme Assay: The EGFR kinase assay was performed following a known procedure. Briefly, Nunc MaxiSorp (Nalge Nunc International, Rochester, N.Y., USA) 96-well plates were incubated overnight at 37° C. with 100 μL/well of […] poly(L-glutamic acid-L-tyrosine, 4:1) PGT in PBS. Excess PGT was removed and the plates were washed three times with wash buffer (0.1% Tween-20 in PBS). The kinase reaction was performed using commercially available isolated EGFR (4.5 ng/well). The compound was added and phosphorylation was initiated by the addition of 20 μL/well of ATP (50 μM). After 8 min at room temperature with constant shaking, the reaction was terminated by aspiration of the reaction mixture and rinsing of the plates (four times) with wash buffer. Phosphorylated PGT was detected following a 25 min incubation with 50 μL/well of horseradish peroxidase-conjugated PY20 anti-phosphotyrosine antibody (Santa Cruz Biotechnology, Santa Cruz, Calif., USA) diluted to […] in blocking buffer (3% bovine serum albumin and 0.05% Tween-20 in PBS). The antibody was removed by aspiration and the plates washed four times with wash buffer. The signals were developed by the addition of 50 μL/well of 3,3′,5,5′-tetramethylbenzidine peroxidase substrate (Kirkegaard and Perry Laboratories, Gaithersberg, Md., USA). Following blue color development, H2SO4 (50 μL; 0.09 M) was added per well to stop the reaction. The plates were read at 450 nm using a Bio-Rad ELISA reader (model 2550; Bio-Rad, Hercules, Calif., USA).
Inhibition of EGFR TK: The EGFR TK inhibitory activity of JDF12 and its metabolite JDF04R was tested in a short 8 minute exposure to an ELISA assay. The assay was based on the inhibition of phosphorylation of poly(L-glutamic acid-L-tyrosine, 4:1) (PGT) by EGFR tyrosine kinase. […] As expected, the EGFR TK-inhibitory activity of MTZ was negligible (FIG. 1).
In general terms: ELISA stands for enzyme-linked immunosorbent assay.

The target of data set [1] is T2, EGFR autophosphorylation in DU145 cells (Homo sapiens, UniProt P00533).
T2 construct: endogenous in cells; host or cells: DU145
The experiment in a line: EGFR phosphorylation assay, whole cell (Western blot). Format: cell-based. The protocol:
EGFR Phosphorylation Assay: DU145 cells (1×10^6) were preincubated in a six-well plate using 10% serum at 37° C. over a period of 24 h followed by a starving period of 24 h. The cells where then exposed to a dose range of each drug over a period of 2 h and subsequently treated with 50 ng/ml of EGF for 20 min at 37° C. The cells were washed with PBS and resuspended in cold lysis buffer [50 mmol/L Tris-HCl (pH 7.5), 150 mmol/L NaCl, 1% NP40, 1 mmol/L EDTA, 5 mmol/L NaF, 1 mmol/L Na3VO4, protease inhibitor tablet (Roche Biochemicals, Laval, Quebec, Canada)]. The lysates were kept on ice for 30 min and collected by centrifugation at 10,000 rpm for 20 min at 4° C. The concentrations of protein were determined using the Bio-Rad protein assay kit (Bio-Rad Laboratories, Hercules, Calif.). Equal amounts of protein […] were subjected to a 10% SDS-polyacrylamide gel electrophoresis (SDS-PAGE) and transferred to a polyvinylidene difluoride membrane (Millipore, Bedford, Mass.). Nonspecific binding on the membrane was minimized with a blocking buffer containing bovine serum albumin (5%) in PBS-Tween 20. The membranes were subsequently incubated with primary anti-phosphotyrosine antibody (Upstate Biotechnology, Lake Placid, N.Y.) for the detection of phosphotyrosine. The membranes were stripped and reprobed with anti-EGFR (Neomarkers, Fremont, Calif.) for determination of corresponding receptor levels. Blots were incubated with horseradish peroxidase-goat anti-mouse antibody (1:1,000 dilution; Cell Signaling Research, Beverly, Mass.), and the bands visualized with an enhanced chemiluminescence system (Amersham Pharmacia Biotech,. Little Chalfont, UK). Band intensities were measured using the SynGene GeneTools software package.
Inhibition of EGFR TK in Whole Cell Assay: DU145 cells were starved for 24 h and stimulated with EGF in the presence of the different drugs over a period of 2 h. Inhibition of autophosphorylation of EGFR was analyzed by Western blotting. The observed order of potency from this whole cell assay paralleled the one previously observed with ELISA. […]
In general terms: Immunoblotting shows a protein as a band on a membrane.

Another data set has as its system DU145 cell line. Nature of the data set: Mouse xenograft study (DU145). Conditions: 100 mg/kg.
The subject of another data set is DU145. The experiment in a line: Growth inhibition assay (SRB), DU145. The following applies: Homo sapiens, DU-145, 144 h, read-out: IC50 (x ± SD).
The next data set deals with LNCaP-WT. The experiment in a line: Growth inhibition assay (SRB), LNCaP-WT. The following applies: 144 h, read-out: IC50 (x ± SD).
In the next data set the test system is LNCaP-EGFR. The experiment in a line: Growth inhibition assay (SRB), LNCaP-EGFR. The following applies: 144 h, read-out: IC50 (x ± SD).

Entries after “also recorded” stand apart in the source; their conditions may differ.

T2 sequence (P00533 25-1210): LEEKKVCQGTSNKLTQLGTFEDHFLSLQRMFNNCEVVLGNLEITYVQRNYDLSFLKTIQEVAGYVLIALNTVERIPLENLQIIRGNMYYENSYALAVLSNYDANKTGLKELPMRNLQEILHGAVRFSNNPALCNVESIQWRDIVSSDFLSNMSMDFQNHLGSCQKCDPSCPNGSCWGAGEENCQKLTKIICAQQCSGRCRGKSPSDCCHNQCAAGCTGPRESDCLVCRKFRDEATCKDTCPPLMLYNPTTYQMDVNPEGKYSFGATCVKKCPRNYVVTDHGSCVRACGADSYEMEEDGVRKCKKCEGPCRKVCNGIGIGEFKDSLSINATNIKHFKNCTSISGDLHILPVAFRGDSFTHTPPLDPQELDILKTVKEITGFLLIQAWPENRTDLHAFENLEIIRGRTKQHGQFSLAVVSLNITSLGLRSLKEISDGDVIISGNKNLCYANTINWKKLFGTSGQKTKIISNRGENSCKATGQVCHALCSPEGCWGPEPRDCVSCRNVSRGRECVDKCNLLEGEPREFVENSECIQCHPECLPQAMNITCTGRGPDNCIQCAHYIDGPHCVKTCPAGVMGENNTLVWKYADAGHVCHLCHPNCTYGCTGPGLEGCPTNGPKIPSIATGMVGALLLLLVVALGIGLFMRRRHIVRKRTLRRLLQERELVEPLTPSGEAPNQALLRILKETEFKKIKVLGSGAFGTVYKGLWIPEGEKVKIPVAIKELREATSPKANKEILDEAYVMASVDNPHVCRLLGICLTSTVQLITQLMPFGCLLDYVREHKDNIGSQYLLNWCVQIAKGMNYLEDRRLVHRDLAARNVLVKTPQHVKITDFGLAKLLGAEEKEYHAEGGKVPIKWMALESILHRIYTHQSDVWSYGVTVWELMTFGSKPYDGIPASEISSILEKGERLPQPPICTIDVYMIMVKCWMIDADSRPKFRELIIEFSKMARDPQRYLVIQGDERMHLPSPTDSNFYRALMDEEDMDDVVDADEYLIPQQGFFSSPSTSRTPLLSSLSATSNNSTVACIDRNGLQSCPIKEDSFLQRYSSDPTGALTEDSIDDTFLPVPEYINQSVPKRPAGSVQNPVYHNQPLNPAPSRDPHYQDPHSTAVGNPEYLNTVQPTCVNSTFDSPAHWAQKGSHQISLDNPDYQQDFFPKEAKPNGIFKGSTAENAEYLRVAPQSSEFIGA
T1 sequence (P00533 25-1210): as above
Experimental for LNCaP-EGFR: (§1) Cell Culture: The human prostate cancer cell line DU145 was obtained from the American Type Culture Collection (Manassas, Va.)). The androgen-sensitive prostate cancer cell lines LNCaP-FGC, LNCaP-EGFR and LNCaP-erbB2 (stably transfected with EGFR erbB2 gene respectively) were generous gifts from Dr. Moulay Aloui-Jamali (Jewish General Hospital, Montreal, Quebec, Canada). […] The cultures were maintained in logarithmic growth by harvesting with a trypsin-EDTA solution containing 0.5 mg/mL trypsin and 0.2 mg/mL EDTA and replating before confluence. In all assays, the cells were plated over a period of time ranging from 24-48 h prior to drug administration.
Experimental for LNCaP-WT: as §1

Take `O=C(Nc1ccc2ncnc(Nc3cccc(Cl)c3)c2c1)c1ncn2c(=O)n(CCCl)nnc12` [JDF12]: the half-maximal inhibitory concentration (IC50) at EGFR tyrosine kinase was 0.62 µM; in data set [1] (DU145 cells, EGF stimulated, 2 h drug exposure) it was 12 µM; with DU145, 11.3 ± 0.22 µM; with LNCaP-WT it was 13.2 ± 3.88 µM; with LNCaP-EGFR, 12 ± 0.57 µM. Further, the “potency less than that of JDF04R (fold)” value in data set [1] (DU145 whole cell assay) is “approximately 2 fold”. Besides, in the data set on DU145 cell line (CD-1 mice, FIG. 8c), the “weight loss during the efficacy study” value is “No weight loss”. Besides, the antitumor activity entry in the data set on DU145 cell line (DU145 xenograft, 100 mg/kg i.p. every other day, 31 days after treatment) is recorded as “significant antitumor activity; also recorded: superior to that of an equidose of Iressa”.
